As usually defined, the % inhibition is the percentage by which the read-out fell short of the control. The term inhibition denotes the drop in the measured response relative to a control, in per cent.

In one series the test system is HER4. Set-up: method as in Drewry et al., 2017. The note with it: PKIS2, KinomeScan, ref Drewry et al., 2017; cited from earlier work.
Another series concerns HER2. Set-up: method as in Drewry et al., 2017. The note with it: PKIS2, KinomeScan, ref Drewry et al., 2017; cited from earlier work.
In series [1] the test system is intracellular MRSA in HeLa cells. Briefly: Gentamicin protection assay with CFU count in MRSA-infected HeLa cells. Type of series: cell-based, Staphylococcus aureus. To be noted: HeLa cells; for effect on intracellular MRSA burden: 991 used at 25 μM, rapamycin at 1 μM, Figure 5J. On the procedure:
The cells were resuspended in cell culture medium without antibiotics, seeded with 10,000 cells/well into Costar flat-bottom 96-well plates (Corning, Amsterdam, the Netherlands), and were incubated overnight at 37°C/5% CO2. The next day, the bacteria were centrifuged at ≥1800 g for 15 min and resuspended in cold PBS + 5 mM ethylenediaminetetraacetic acid (EDTA). The number of CFUs present in the bacterial suspension was estimated from the optical density at 600 nm (OD600) by assuming 8x10^8 CFUs to be present in a bacterial suspension with OD600 = 1, based on prior titrations. The bacterial suspension was diluted in cell culture medium without antibiotics and added to the cells. Accuracy of the multiplicity of infection (MOI) was validated by plating serial dilutions of the MRSA inoculums on Difco TS agar plates (BD Biosciences). The calculated mean MOI throughout all experiments was 6.8 ± 4.6 (mean ± SD). Infected cells were centrifuged for 3 min at 150 g and incubated for 1 hour at 37°C/5% CO2. Next, the cells were incubated with fresh cell culture medium supplemented with 30 µg/ml gentamicin sulphate (Lonza BioWhittaker, Basel, Switzerland) for 15 min at 37°C/5% CO2 to kill residual extracellular bacteria. Infected cells were incubated overnight at 37°C/5% CO2 in cell culture medium in the presence of kinase inhibitors and 5 µg/ml gentamicin sulphate-containing medium to prevent the growth of extracellular bacteria. The solvent of the compounds, DMSO, was used at equal % v/v as a negative control. For the screen, each compound was tested in triplicate, on separate cell culture plates, resulting in triplicate values for each kinase inhibitor.
Infected cells were lysed in sterile water + 0.05% UltraPure SDS solution (Invitrogen, ThermoFisher Scientific) to release intracellular bacteria. Bacterial suspensions and lysates of cells infected with MRSA were 5-fold serially diluted and 10-μl drops were plated on square TS agar plates. The plates were left to dry and incubated overnight at 37°C/5% CO2.

In a further series the test system is planktonic MRSA cultures. Briefly: Bacterial growth assay in cell-free planktonic MRSA cultures (OD600). It is filed as cell-based, Staphylococcus aureus. To be noted: for direct antibiotic effects against MRSA: planktonic cultures. On the procedure:
[…] The absorbance was measured using an EnVision plate reader (PerkinElmer). The plates were incubated at 37°C overnight and the absorbance was measured again the next day. Real-time measurement of bioluminescence by the MRSA-lux strain was performed in a white flat-bottom 96-wells plate using a SpectraMax i3x plate reader and an integration time set at 9000 ms.

A further series deals with MRSA. The note with it: especially against MRSA biofilm formation; ref Liu et al., 2022; cited from earlier work.
The next series deals with EGFR. Set-up: method as in Drewry et al., 2017. The note with it: PKIS2, KinomeScan, ref Drewry et al., 2017; cited from earlier work.
The next series concerns HeLa cells. Briefly: Compound screen by flow cytometry: HeLa cell count as surrogate readout of cell viability (z-scoreHeLa). Type of series: cell-based, human. The gist of the method: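 HeLa cells were infected with GFP-MRSA (mean MOI 6.8 ± 4.6) for 1 h, and extracellular bacteria were killed with 30 µg/ml gentamicin. Cells were then incubated overnight with kinase inhibitors in 5 µg/ml gentamicin, in triplicate against DMSO controls. Flow-cytometric cell count served as a viability surrogate, expressed as a plate z-score.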
A general note: A flow cytometer gives signals particle by particle.

A further series concerns intracellular MRSA. Type of series: cell-based, Staphylococcus aureus. The gist of the method:
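HeLa, MRSA-GFP at MOI ~6.8, 1 h infection; gentamicin 30 µg/ml for 15 min; inhibitor plus gentamicin 5 µg/ml overnight, 37°C/5% CO2; triplicate plates; FACS %GFP+ and cell count; hit = z ≤ -2 MRSA+, z ≥ -3 count.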

Regarding `CS(=O)(=O)CCNCc1nc(-c2ccc3ncnc(Nc4ccc(OCc5ccccc5)c(Cl)c4)c3c2)cs1` [GW582764], in the series with HER4, the “% inhibition at 1 µM HER4” value is given as 97.8%. Besides, the “% inhibition at 1 µM HER2” value with HER2 was 100%.
Regarding `Cc1ccc(Oc2nc3cc(-c4ccc5c(ccn5C)c4)c(Cl)cc3[nH]2)cc1C(=O)O` [Compound 991, reference compound], the “effect on intracellular MRSA burden” value in series [1] is “able to reduce the intracellular MRSA burden similar to GW296115X”. Further, the “direct antibiotic effects against MRSA” value in the series on planktonic MRSA cultures (Supplementary Figure S5) is given as “shows direct antibiotic effects”.
Turning to `CO[C@H]1C[C@@H]2CC[C@@H](C)[C@@](O)(O2)C(=O)C(=O)N2CCCC[C@H]2C(=O)O[C@H]([C@H](C)C[C@@H]2CC[C@@H](O)[C@H](OC)C2)CC(=O)[C@H](C)/C=C(\C)[C@@H](O)[C@@H](OC)C(=O)[C@H](C)C[C@H](C)/C=C/C=C/C=C/1C` [rapamycin, reference compound], the “effect on intracellular MRSA burden” value in series [1] is “able to reduce the intracellular MRSA burden similar to GW296115X”. Further, the “direct antibiotic effects against MRSA” value in the series on planktonic MRSA cultures (Supplementary Figure S5) is listed as “not the case”.
As for `CS(=O)(=O)CCNCc1ccc(-c2ccc3ncnc(Nc4ccc(OCc5cccc(F)c5)c(Cl)c4)c3c2)o1` [lapatinib, reference compound], in series [1] (3 µM), the “increase in the intracellular bacterial burden” value was 80%. In series [1] (10 and 30 µM), the “activity against intracellular MRSA” value is listed as “only modestly active”. Also, the “effect on planktonic MRSA growth (direct antibiotic effect)” value with planktonic MRSA cultures (up to 100 µM concentration, Supplementary Figure S5) is “did not observe this direct effect”. The “concentrations resulting in direct antimicrobial effects” value with MRSA is listed as “above 10 µM”.
As to `CO/C1=C\C(C)=C\[C@@H](C)[C@@H](O)[C@@H](C)C/C(C)=C/C=C/[C@H](OC)[C@@H]([C@@H](C)[C@@H](O)[C@H](C)[C@@]2(O)C[C@@H](O)[C@H](C)[C@@H](C(C)C)O2)OC1=O` [bafilomycin A1, reference compound], in series [1] (bafilomycin A1 alone (used at 100 nM)), the “reduction in the intracellular bacterial burden” value was found to be 70%. The “direct antibiotic effects against MRSA” value in the series on planktonic MRSA cultures (Supplementary Figure S5) was “not the case”.
As for `CS(=O)(=O)CCNCc1nc(-c2ccc3ncnc(Nc4ccc(OCc5cccc(F)c5)c(Cl)c4)c3c2)cs1` [GW583340], the “% inhibition at 1 µM HER4” value in the series with HER4 is listed as 99.1%. Further, the “% inhibition at 1 µM HER2” value in the series on HER2 is recorded as 99.7%. Also, the “% inhibition at 1 µM EGFR” value in the series with EGFR is reported as 99.9%.
On to `NC(=O)c1cccc(Nc2nccc(Nc3ccc(Oc4cccc(Cl)c4)c(Cl)c3)n2)c1` [GW659008A], for which the “cell count rep 1” value with HeLa cells (PKIS compound screen raw data, HeLa cell count, replicate 1) is recorded as 25296. For the same molecule, the “cell count rep 2” value in the series on HeLa cells (PKIS compound screen raw data, HeLa cell count, replicate 2) turned out to be 38684. Further, the “cell count rep 3” value in the series on HeLa cells (PKIS compound screen raw data, HeLa cell count, replicate 3) stood at 42387. Besides, in the series on HeLa cells (PKIS compound screen, HeLa cell count, mean of 3 replicates), the z-scoreHeLa mean was 0.60. The “z-scoreHeLa rep 1” value with HeLa cells (PKIS compound screen, HeLa cell count, replicate 1) is on record as 0.78. Moreover, the “z-scoreHeLa rep 2” value in the series on HeLa cells (PKIS compound screen, HeLa cell count, replicate 2) came to 0.73. Moreover, the “z-scoreHeLa rep 3” value with HeLa cells (PKIS compound screen, HeLa cell count, replicate 3) is listed as 0.30. Besides, in the series with HeLa cells (PKIS compound screen, Yes/No call on z-scoreHeLa), the cell death entry is on record as “No”. Besides, in the series with intracellular MRSA (PKIS compound screen raw data, MRSA-infected HeLa cells, replicate 1), the “%GFP+ rep 1” value is on record as 9.2%. In the series with intracellular MRSA (PKIS compound screen raw data, MRSA-infected HeLa cells, replicate 2), the “%GFP+ rep 2” value worked out at 10.5%. Moreover, the “%GFP+ rep 3” value in the series on intracellular MRSA (PKIS compound screen raw data, MRSA-infected HeLa cells, replicate 3) is recorded as 10.3%. In addition, in the series on intracellular MRSA (PKIS compound screen, MRSA-infected HeLa cells, mean of 3 replicates), the “z-scoreMRSA+ mean” value was -2.69. In addition, in the series on intracellular MRSA (PKIS compound screen, MRSA-infected HeLa cells, replicate 1), the “z-scoreMRSA+ rep 1” value was -2.76. Moreover, the “z-scoreMRSA+ rep 2” value in the series with intracellular MRSA (PKIS compound screen, MRSA-infected HeLa cells, replicate 2) was -2.41. In addition, the “z-scoreMRSA+ rep 3” value in the series with intracellular MRSA (PKIS compound screen, MRSA-infected HeLa cells, replicate 3) was -2.89. In addition, in the series with intracellular MRSA (PKIS compound screen, Yes/No call (effect without cell death)), the hit result was “Yes”. Further, the effect entry with intracellular MRSA (PKIS compound screen, Yes/No call on z-scoreMRSA+) is “Yes”. The inhibition at 10 µM in the series with planktonic MRSA cultures (Staphylococcus aureus, MRSA, read-out: inhibition of planktonic MRSA growth) worked out at 67.3%.
